From article PMC8808171, “Nonselective TRPC channel inhibition and suppression of aminoglycoside-induced premature termination codon readthrough by the small molecule AC1903” (The Journal of Biological Chemistry, 2022)

Assays:
[1] = tested on: TC-71 cells (TP53 R213X); assay: G418-induced PTC readthrough (full-length p53, capillary electrophoresis Western) in TC-71 cells; format: cell-based; conditions: without G418
Excerpt: Variation in PTC readthrough response has been reported among individuals or cell lines with different nonsense mutations. Although this in part highlights the importance of the stop codon and its surrounding sequence as well as the physical location of the nonsense mutation in the mRNA sequence, understanding the contribution of other underlying genetic variations becomes more complicated. To rule out the effect of the sequence and position of nonsense mutations on response variation to potential PTC readthrough modulators, we studied two cancer cell lines, DMS-114 and TC-71, with identical homozygous nonsense mutation R213X in their TP53 gene. […] To find out whether the reduced response to G418 in TC-71 cells was associated with lower intracellular levels of G418, we measured concentrations of G418 in both cell lines at 0, 8 and 24 h post exposure to G418 (100 μg/ml).
Figure 1 Effect of TRPC inhibitors on G418 induced PTC readthrough. A, DMS-114 and TC-71 cell lines with homozygous TP53 nonsense mutation (R213X) were exposed to indicated concentrations of G418 for 24 h and p53 levels (full-length, FL-p53; truncated, TR-p53) were measured. B, 100 μg/ml G418 was added to DMS-114 and TC-71 cells and its total intracellular levels were measured at indicated time points (n = 5; data normalized to the highest response in each experiment; bars represent mean ± SD). […]

[2] = tested on: JEB01 keratinocytes; assay: Measurement of intracellular G418 (gentamicin ELISA) in JEB01 keratinocytes; format: cell-based, human; conditions: 150 μM AC1903 (Fig. 2F)
Procedure: Figure 2 Effect of AC1903 on PTC readthrough and G418 trafficking.A and B, DMS-114 (A) or TC-71 (B) cells were pretreated with indicated concentrations of AC1903 for 3 h followed by exposure to 400 μg/ml G418. After 3 h medium was replenished and at 24 h cell lysates were prepared and p53 levels were measured. C and E, DMS-114 (C) or JEB01 (E) cells were either left untreated or pretreated with 150 μM AC1903 for 3 h followed by exposure to indicated concentrations of G418 for another 3 h. At 24 h cell lysates were prepared and p53 (C) or Collagen XVII (E) levels were measured. In panels A–C, protein levels were measured by automated capillary electrophoresis Western analysis (using vinculin as loading control). In panel E, protein levels were measured by Western blot (using beta-actin as loading control). […] D, total intracellular levels of G418 were measured in the same lysates as in (C) (n = 5; data normalized to the highest response in each experiment; bars represent mean ± SD). F, total intracellular levels of G418 were measured in the same lysates as in (E) (n = 2; data normalized to the highest response in each experiment; bars represent mean ± SD). ∗ indicates statistically significant difference between samples according to one-way ANOVA (p < 0.05). […]

Q: What does the source list for `c1ccc(Cn2c(NCc3ccco3)nc3ccccc32)cc1` [AC1903]?
A: effect on PTC readthrough of AC1903 alone [1]: did not affect PTC readthrough; intracellular G418 levels in cells exposed to AC1903 [2]: significantly declined
